The source of these data is article PMC7439413 (Science Advances, 2020).

In test [1] the target is GRwt LBD-ligand complex / PRGC1 peptide (Homo sapiens, UniProt P04150). The test is described as follows: SPR: binding of GRwt-ligand complexes to immobilized PRGC1 peptide. Conditions: both GR constructs (GRwt and GRF602S), irrespective of ligand.
The next test addresses T1, human GR (Homo sapiens, UniProt P04150).
T1 sequence (P04150 1-777): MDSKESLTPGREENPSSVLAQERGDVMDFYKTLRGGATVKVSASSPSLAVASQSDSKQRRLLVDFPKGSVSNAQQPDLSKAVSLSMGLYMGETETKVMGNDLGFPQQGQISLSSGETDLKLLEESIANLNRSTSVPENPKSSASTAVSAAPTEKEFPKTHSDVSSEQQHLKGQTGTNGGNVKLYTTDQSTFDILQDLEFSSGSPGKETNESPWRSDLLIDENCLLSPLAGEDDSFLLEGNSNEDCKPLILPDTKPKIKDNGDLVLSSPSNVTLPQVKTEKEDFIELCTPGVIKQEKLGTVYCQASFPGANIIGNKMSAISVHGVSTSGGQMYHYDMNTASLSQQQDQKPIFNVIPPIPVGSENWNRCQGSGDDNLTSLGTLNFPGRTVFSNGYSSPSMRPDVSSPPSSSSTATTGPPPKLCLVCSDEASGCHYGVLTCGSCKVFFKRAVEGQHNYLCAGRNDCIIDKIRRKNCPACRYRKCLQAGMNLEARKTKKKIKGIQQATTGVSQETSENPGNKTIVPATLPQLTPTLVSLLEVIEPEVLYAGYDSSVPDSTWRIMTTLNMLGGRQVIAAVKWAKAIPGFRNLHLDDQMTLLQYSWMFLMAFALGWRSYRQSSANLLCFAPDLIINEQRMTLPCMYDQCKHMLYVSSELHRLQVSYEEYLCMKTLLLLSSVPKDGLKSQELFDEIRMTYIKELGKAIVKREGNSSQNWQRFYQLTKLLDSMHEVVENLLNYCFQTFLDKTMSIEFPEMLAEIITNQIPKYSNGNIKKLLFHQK
The test can be described thus: GR reporter gene assay. It counts as cell-based. Conditions: transactivation reporter gene assay, comparison among steroid ligands. (In general: In a reporter assay the amount or activity of a reporter protein is the signal.)

The next test relates to GRwt-ligand-TIF2 complex. The test can be described thus: CPMG relaxation dispersion NMR, GRwt-ligand-TIF2. Set-up: species or system human. Conditions: M752 13C CPMG, semiquantitative interpretation, 298 K.
For test [2], the system named is GRwt LBD-ligand complex / TIF2 peptide. The test can be described thus: SPR: binding of GRwt-ligand complexes to immobilized TIF2 peptide. Set-up: species or system human. The conditions noted are these: stated for both TIF2 and PRGC1. Background: In SPR one partner is held on a chip, and binding of the other changes the refractive index at the surface.
Test [3] deals with GRF602S-ligand-TIF2 complex. The test can be described thus: CPMG relaxation dispersion NMR, GRF602S-ligand-TIF2. Further details: species or system human. The conditions noted are these: GRF602S-dex-TIF2; 13C CPMG, 14.1 and 18.8 T, 298 K.
In test [4] the test system is GRwt-ligand-PRGC1 complex. The test is described as follows: CPMG relaxation dispersion NMR, GRwt-ligand-PRGC1. Set-up: species or system human. Conditions: GRwt-dex-PRGC1; 13C CPMG, 18.8 T, 298 K.

On to PPQEAEEPSLLKKLLLAPANT [PRGC1], for which the “affinity of GR constructs for coregulator in words” value in test [1] was “higher affinity for PRGC1 than for TIF2”.
`C[C@]12C=CC(=O)C=C1CC[C@@H]1[C@@H]2[C@@H](O)C[C@@]2(C)[C@H]1C[C@H]1O[C@@H](C3CCCCC3)O[C@]12C(=O)CO` [dibC, desisobutyryl-ciclesonide]: the “Agonist potency/efficacy in words” value at human GR is given as “partial agonist, dibC binds GR with high potency”. The “population ratio of helix 12 conformations, pm/pM” value in the test with GRwt-ligand-TIF2 complex was 0.1. Also, in test [2], the “coregulator-binding affinity rank of GRwt-ligand complex in words” value is on record as “highest affinity for coregulator peptides”.
Turning to `C[C@@H]1C[C@H]2[C@@H]3CCC4=CC(=O)C=C[C@]4(C)[C@@]3(F)[C@@H](O)C[C@]2(C)[C@@]1(O)C(=O)CO` [dex, dexamethasone], in test [3], the “M565 relaxation dispersion in words” value is “shows relaxation dispersion in the GRF602S-dex-TIF2 complex, albeit of much lower amplitude” and the “M752 relaxation dispersion in words” value is given as “marked relaxation dispersion profile”. Moreover, the “M565 relaxation dispersion in words” value in test [4] is on record as “does not show any dispersion”.
Regarding `C[C@]12CCC(=O)C=C1CC[C@@H]1[C@@H]2[C@@H](O)C[C@@]2(C)[C@H]1CC[C@]2(O)C(=O)CO` [cortisol], the “coregulator-binding affinity rank of GRwt-ligand complex in words” value in test [2] is reported as “weakest affinity in both cases”.
